Laboratory results as given in ChEMBL document CHEMBL5113404, “Design, synthesis and biological evaluation of new parbendazole derivatives for the treatment of HNSCC” (Eur J Med Chem, 2022).
pIC50: −log10 of the molar value.

Tests used:
Tubulin (Homo sapiens) = Tubulin (Homo sapiens) (UniProt P68371+Q9H4B7+P0DPH7+P68366+Q13509+Q71U36+P04350+Q3ZCM7+P07437+P68363+Q9BQE3+Q6PEY2+Q13885+Q9BVA1+Q9BUF5); test: Inhibition of tubulin polymerization (unknown origin) at 20 micromol/L by fluorescence based analysis; format: protein-complex assay; conditions: dose 20.0 µmol/L
[1] = Antiproliferative activity against human HN-6 cells assessed as cell growth inhibition incubated for 72 hrs by CCK-8 assay; format: functional, cell-based; conditions: HN-6, 72 h
Tubulin = test: Inhibition of tubulin polymerization (unknown origin) by fluorescence based analysis; format: protein-complex assay, Homo sapiens
FaDu = test: Antiproliferative activity against human FaDu cells assessed as cell growth inhibition incubated for 72 hrs by CCK-8 assay; format: functional, cell-based
CAL-27 = test: Antiproliferative activity against human CAL-27 cells assessed as cell growth inhibition incubated for 72 hrs by CCK-8 assay; format: functional, cell-based; conditions: CAL-27, 72 h

Structure (SMILES)	inhibition (Tubulin (Homo sapiens)) [%]	pIC50 (Tubulin)	pIC50 [1]	pIC50 (FaDu; read-out: IC50)	pIC50 (CAL-27)	pIC50 (FaDu)
CCCCc1ccc2nc(NC(=O)OC3CCCC3)[nH]c2c1	8.6	–	5.77	–	–	–
CC[C@]1(O)C[C@@H]2CN(CCc3c([nH]c4ccccc34)[C@@](C(=O)OC)(c3cc4c(cc3OC)N(C)[C@H]3[C@@](O)(C(=O)OC)[C@H](OC(C)=O)[C@]5(CC)C=CCN6CC[C@]43[C@@H]65)C2)C1 [VINBLASTINE]	–	–	9.08	8.35	8.99	–
CCCCc1ccc2nc(NC(=O)Cc3ccccc3)[nH]c2c1	4.9	–	< 5.70	–	–	–
Cc1cc2nc(NC(=O)OC(C)C)[nH]c2cc1C	89.4	5.29	6.87	–	–	–
CC(C)OC(=O)Nc1nc2cc(F)c(F)cc2[nH]1	12.6	–	5.86	–	–	–
CC(C)OC(=O)Nc1nc2ccc(C(F)(F)F)cc2[nH]1	4.37	–	6.00	–	–	–
CCCCc1ccc2nc(NC(=O)NC3CCCCC3)[nH]c2c1	8.26	–	6.01	–	–	–
CCCCc1ccc2nc(NC(=O)c3ccco3)[nH]c2c1	57.7	4.79	6.46	–	–	–
COc1cc2c(c(OC)c1OC)-c1ccc(OC)c(=O)cc1[C@@H](NC(C)=O)CC2 [COLCHICINE]	–	–	7.71	–	7.43	7.64
CCCCc1ccc2nc(NC(=O)C3CCOCC3)[nH]c2c1	100	5.36	5.93	–	–	–
CCCCc1ccc2nc(NC(=O)OCc3ccccc3)[nH]c2c1	10.5	–	< 5.70	–	–	–
CCCCc1ccc2nc(NC(=O)NC3CCCC3)[nH]c2c1	32.3	–	6.13	–	–	–
COc1ccc(/C=C\c2cc(OC)c(OC)c(OC)c2)cc1O [COMBRETASTATIN A4]	–	–	8.35	8.30	8.52	–
CCCCc1ccc2nc(NC(=O)NC(C)(C)C)[nH]c2c1	9.79	–	< 5.70	–	–	–
Cc1ccc2nc(NC(=O)OC(C)C)[nH]c2c1	71.6	5.20	6.23	–	–	–
CC(C)OC(=O)Nc1nc2ccc(C#N)cc2[nH]1	3.43	–	< 5.70	–	–	–
CCCCc1ccc2nc(NC(=O)NCCc3ccccc3)[nH]c2c1	38.7	–	6.37	6.11	6.30	–
CC(C)OC(=O)Nc1nc2ccc(F)cc2[nH]1	0.85	–	5.83	–	–	–

Further lines, with some results ahead:

inhibition (Tubulin (Homo sapiens)) [%]	pIC50 (Tubulin)	Structure (SMILES)	pIC50 [1]	pIC50 (FaDu; read-out: IC50)	pIC50 (CAL-27)	pIC50 (FaDu)
44.1	–	CCCCOC(=O)Nc1nc2ccc(CCCC)cc2[nH]1	6.60	–	–	–
0	–	CCCCCCOC(=O)Nc1nc2ccc(CCCC)cc2[nH]1	< 5.70	–	–	–
88.8	5.27	CCCCc1ccc2nc(NC(=O)OCCC)[nH]c2c1	6.60	6.55	6.60	–
100	5.17	CCCCCc1ccc2nc(NC(=O)OC(C)C)[nH]c2c1	6.77	6.64	6.51	–
12.5	–	CCCCCCNC(=O)Nc1nc2ccc(CCCC)cc2[nH]1	5.85	–	–	–
99.7	5.79	CCCCc1ccc2nc(NC(=O)OC(C)CC)[nH]c2c1 (stereo not drawn)	7.13	6.81	6.77	–
9.65	–	CCCCc1ccc2nc(NC(=O)NC(C)C)[nH]c2c1	6.07	–	–	–
36.4	–	CCCCc1ccc2nc(NC(=O)OCCCCl)[nH]c2c1	6.34	–	–	–
0	–	CCCCCCCOC(=O)Nc1nc2ccc(CCCC)cc2[nH]1	< 5.70	–	–	–
34.4	–	CCCCc1ccc2nc(NC(=O)OCC(C)C)[nH]c2c1	6.39	–	–	–
0	–	CCCCc1ccc2nc(NC(=O)NCCOC(=O)C(C)C)[nH]c2c1	5.80	–	–	–
9.96	–	CCCCc1ccc2nc(NC(=O)OCC(CC)CCCC)[nH]c2c1 (stereo not drawn)	< 5.70	–	–	–
0	–	CCCCc1ccc2nc(NC(=O)NCC)[nH]c2c1	6.73	–	–	–
8.4	–	C=CCNC(=O)Nc1nc2ccc(CCCC)cc2[nH]1	6.41	6.55	6.67	–
2.99	–	CCCCc1ccc2nc(NC(=O)NCCC)[nH]c2c1	6.26	–	–	–
0	–	CCCCc1ccc2nc(NC(=O)OCCCl)[nH]c2c1	< 5.70	–	–	–
